Reference: PubChem BioAssay (NCI)
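Cultured in 96-well plates, cells were exposed to test compound for 48 hours across five concentrations. TGI marks complete inhibition of growth.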

Key:
Assay in all cases: DTP human tumour cell line panel, 48 h
SNB-19 CNS = test system: SNB-19 CNS
OVCAR-8 ovarian = test system: OVCAR-8 ovarian
NCI-H23 lung = test system: NCI-H23 lung
HT29 colon = test system: HT29 colon
COLO 205 colon = test system: COLO 205 colon
CCRF-CEM leukemia = test system: CCRF-CEM leukemia
HS 578T breast = test system: HS 578T breast
UACC-62 melanoma = test system: UACC-62 melanoma
SK-MEL-5 melanoma = test system: SK-MEL-5 melanoma
SF-539 CNS = test system: SF-539 CNS
NCI-H226 lung = test system: NCI-H226 lung
UO-31 renal = test system: UO-31 renal
ACHN renal = test system: ACHN renal
OVCAR-4 ovarian = test system: OVCAR-4 ovarian
NCI-H460 lung = test system: NCI-H460 lung
SK-MEL-28 melanoma = test system: SK-MEL-28 melanoma
TK-10 renal = test system: TK-10 renal
U251 CNS = test system: U251 CNS
MDA-N = test system: MDA-N
HCT-116 colon = test system: HCT-116 colon
SR leukemia = test system: SR leukemia
SK-MEL-2 melanoma = test system: SK-MEL-2 melanoma
BT-549 breast = test system: BT-549 breast
786-0 renal = test system: 786-0 renal
K-562 leukemia = test system: K-562 leukemia
HCT-15 colon = test system: HCT-15 colon
HL-60(TB) leukemia = test system: HL-60(TB) leukemia
MALME-3M melanoma = test system: MALME-3M melanoma
NCI/ADR-RES ovarian = test system: NCI/ADR-RES ovarian
M14 melanoma = test system: M14 melanoma
EKVX NSCLC = test system: EKVX NSCLC
HCC-2998 colon = test system: HCC-2998 colon
MCF7 breast = test system: MCF7 breast
NCI-H522 lung = test system: NCI-H522 lung
LOX IMVI melanoma = test system: LOX IMVI melanoma
SK-OV-3 ovarian = test system: SK-OV-3 ovarian
MDA-MB-231 breast = test system: MDA-MB-231 breast
MOLT-4 leukemia = test system: MOLT-4 leukemia
MDA-MB-435 = test system: MDA-MB-435
UACC-257 melanoma = test system: UACC-257 melanoma
T-47D breast = test system: T-47D breast
A498 renal = test system: A498 renal
SF-295 CNS = test system: SF-295 CNS
A549 NSCLC = test system: A549 NSCLC
SNB-75 CNS = test system: SNB-75 CNS
PC-3 prostate = test system: PC-3 prostate
CAKI-1 renal = test system: CAKI-1 renal
RXF 393 renal = test system: RXF 393 renal
OVCAR-3 ovarian = test system: OVCAR-3 ovarian
HOP-92 NSCLC = test system: HOP-92 NSCLC
SF-268 CNS = test system: SF-268 CNS
SN12C renal = test system: SN12C renal
KM12 colon = test system: KM12 colon
RPMI-8226 leukemia = test system: RPMI-8226 leukemia
IGROV1 ovarian = test system: IGROV1 ovarian
OVCAR-5 ovarian = test system: OVCAR-5 ovarian
DU-145 prostate = test system: DU-145 prostate
HOP-62 NSCLC = test system: HOP-62 NSCLC
SW-620 colon = test system: SW-620 colon

`N#Cc1c(O)c(C=Nc2ccc(Cl)cc2)c(=O)n2c1[nH]c1ccccc12` was tested, and the TGI (SNB-19 CNS) was over 100 µM, the TGI (OVCAR-8 ovarian) was over 100 µM and the TGI (NCI-H23 lung) was over 100 µM. For the same compound, the TGI (HT29 colon) was over 100 µM, the TGI (COLO 205 colon) was over 100 µM and the TGI (CCRF-CEM leukemia) was over 100 µM. The TGI (HS 578T breast) was over 100 µM, the TGI (UACC-62 melanoma) was over 100 µM and the TGI (SK-MEL-5 melanoma) was over 100 µM. For the same compound, the TGI (SF-539 CNS) was over 100 µM, the TGI (NCI-H226 lung) was over 100 µM and the TGI (UO-31 renal) was over 100 µM. The TGI (ACHN renal) was over 100 µM, the TGI (OVCAR-4 ovarian) was over 100 µM and the TGI (NCI-H460 lung) was over 100 µM. For the same compound, the TGI (SK-MEL-28 melanoma) was over 100 µM, the TGI (TK-10 renal) was over 100 µM and the TGI (U251 CNS) was over 100 µM. It also gave a TGI (MDA-N) of over 100 µM, a TGI (HCT-116 colon) of over 100 µM and a TGI (SR leukemia) of over 100 µM. For the same compound, the TGI (SK-MEL-2 melanoma) was over 100 µM, the TGI (BT-549 breast) was over 100 µM and the TGI (786-0 renal) was over 100 µM. For the same compound, the TGI (K-562 leukemia) was over 100 µM, the TGI (HCT-15 colon) was over 100 µM and the TGI (HL-60(TB) leukemia) was over 100 µM. The TGI (MALME-3M melanoma) was over 100 µM, the TGI (NCI/ADR-RES ovarian) was over 100 µM and the TGI (M14 melanoma) was over 100 µM. It also gave a TGI (EKVX NSCLC) of over 100 µM, a TGI (HCC-2998 colon) of over 100 µM and a TGI (MCF7 breast) of over 100 µM. It also gave a TGI (NCI-H522 lung) of over 100 µM, a TGI (LOX IMVI melanoma) of over 100 µM and a TGI (SK-OV-3 ovarian) of over 100 µM. For the same compound, the TGI (MDA-MB-231 breast) was over 100 µM, the TGI (MOLT-4 leukemia) was over 100 µM and the TGI (MDA-MB-435) was over 100 µM. For the same compound, the TGI (UACC-257 melanoma) was over 100 µM, the TGI (T-47D breast) was over 100 µM and the TGI (A498 renal) was over 100 µM. It also gave a TGI (SF-295 CNS) of over 100 µM, a TGI (A549 NSCLC) of over 100 µM and a TGI (SNB-75 CNS) of over 100 µM. For the same compound, the TGI (PC-3 prostate) was over 100 µM, the TGI (CAKI-1 renal) was over 100 µM and the TGI (RXF 393 renal) was over 100 µM. It also gave a TGI (OVCAR-3 ovarian) of over 100 µM, a TGI (HOP-92 NSCLC) of over 100 µM and a TGI (SF-268 CNS) of over 100 µM. For the same compound, the TGI (SN12C renal) was over 100 µM, the TGI (KM12 colon) was over 100 µM and the TGI (RPMI-8226 leukemia) was over 100 µM. The TGI (IGROV1 ovarian) was over 100 µM, the TGI (OVCAR-5 ovarian) was over 100 µM and the TGI (DU-145 prostate) was over 100 µM. It also gave a TGI (HOP-62 NSCLC) of over 100 µM and a TGI (SW-620 colon) of over 100 µM.

`O=C(/C=C/c1cccc2ccccc12)c1ccccc1` showed a TGI (SNB-19 CNS) of 30.2 µM, a TGI (OVCAR-8 ovarian) of 21.6 µM and a TGI (NCI-H23 lung) of 28 µM. It also gave a TGI (HT29 colon) of 15.8 µM, a TGI (COLO 205 colon) of 48.6 µM and a TGI (CCRF-CEM leukemia) of 87.3 µM. It also gave a TGI (HS 578T breast) of over 74.9 µM, a TGI (UACC-62 melanoma) of 25.3 µM and a TGI (SK-MEL-5 melanoma) of 28.4 µM. It also gave a TGI (SF-539 CNS) of 15.6 µM, a TGI (NCI-H226 lung) of 27.9 µM and a TGI (UO-31 renal) of 16.3 µM. It also gave a TGI (ACHN renal) of 26.9 µM, a TGI (OVCAR-4 ovarian) of 27.1 µM and a TGI (NCI-H460 lung) of 37.2 µM. For the same compound, the TGI (SK-MEL-28 melanoma) was 33.6 µM, the TGI (TK-10 renal) was 17.6 µM and the TGI (U251 CNS) was 22 µM. It also gave a TGI (MDA-N) of 23.9 µM, a TGI (HCT-116 colon) of 24.1 µM and a TGI (SR leukemia) of over 100 µM. For the same compound, the TGI (SK-MEL-2 melanoma) was 34.2 µM, the TGI (BT-549 breast) was 28.5 µM and the TGI (786-0 renal) was 23.5 µM. For the same compound, the TGI (K-562 leukemia) was 8.69 µM, the TGI (HCT-15 colon) was 23.1 µM and the TGI (HL-60(TB) leukemia) was over 21.2 µM. The TGI (MALME-3M melanoma) was 26.9 µM, the TGI (NCI/ADR-RES ovarian) was 33.6 µM and the TGI (M14 melanoma) was 32.9 µM. The TGI (EKVX NSCLC) was 26.3 µM, the TGI (HCC-2998 colon) was 34.1 µM and the TGI (MCF7 breast) was 15.1 µM. For the same compound, the TGI (NCI-H522 lung) was 25.2 µM, the TGI (LOX IMVI melanoma) was 4.53 µM and the TGI (SK-OV-3 ovarian) was 34.2 µM. For the same compound, the TGI (MDA-MB-231 breast) was 25.5 µM, the TGI (MOLT-4 leukemia) was over 34.7 µM and the TGI (MDA-MB-435) was 24.1 µM. It also gave a TGI (UACC-257 melanoma) of 29.7 µM, a TGI (T-47D breast) of 27.3 µM and a TGI (A498 renal) of 33.3 µM. The TGI (SF-295 CNS) was 35.1 µM, the TGI (A549 NSCLC) was over 52.4 µM and the TGI (SNB-75 CNS) was 30.6 µM. For the same compound, the TGI (PC-3 prostate) was 20.4 µM, the TGI (CAKI-1 renal) was 28 µM and the TGI (RXF 393 renal) was 27.5 µM. It also gave a TGI (OVCAR-3 ovarian) of 22.4 µM, a TGI (HOP-92 NSCLC) of 33.6 µM and a TGI (SF-268 CNS) of 32.6 µM. It also gave a TGI (SN12C renal) of 24.9 µM, a TGI (KM12 colon) of over 42.2 µM and a TGI (RPMI-8226 leukemia) of 7.98 µM. The TGI (IGROV1 ovarian) was 20.5 µM, the TGI (OVCAR-5 ovarian) was 28.8 µM and the TGI (DU-145 prostate) was 29 µM. It also gave a TGI (HOP-62 NSCLC) of 43 µM and a TGI (SW-620 colon) of 15.5 µM.

Compound `c1ccc2c(c1)CN1CCCC1CN2` (configuration not stated) has a TGI (SNB-19 CNS) of over 100 µM, a TGI (OVCAR-8 ovarian) of over 100 µM and a TGI (NCI-H23 lung) of over 100 µM. The TGI (HT29 colon) was over 100 µM, the TGI (COLO 205 colon) was over 100 µM and the TGI (CCRF-CEM leukemia) was over 100 µM. For the same compound, the TGI (HS 578T breast) was over 100 µM, the TGI (UACC-62 melanoma) was over 100 µM and the TGI (SK-MEL-5 melanoma) was over 100 µM. The TGI (SF-539 CNS) was over 100 µM, the TGI (NCI-H226 lung) was over 100 µM and the TGI (UO-31 renal) was over 100 µM. It also gave a TGI (ACHN renal) of over 100 µM, a TGI (OVCAR-4 ovarian) of over 100 µM and a TGI (NCI-H460 lung) of over 100 µM. The TGI (SK-MEL-28 melanoma) was over 100 µM, the TGI (TK-10 renal) was over 100 µM and the TGI (U251 CNS) was over 100 µM. For the same compound, the TGI (MDA-N) was over 100 µM, the TGI (HCT-116 colon) was over 100 µM and the TGI (SR leukemia) was over 100 µM. The TGI (SK-MEL-2 melanoma) was over 100 µM, the TGI (BT-549 breast) was over 100 µM and the TGI (786-0 renal) was over 100 µM. The TGI (K-562 leukemia) was over 100 µM, the TGI (HCT-15 colon) was over 100 µM and the TGI (HL-60(TB) leukemia) was over 100 µM. The TGI (MALME-3M melanoma) was over 100 µM, the TGI (NCI/ADR-RES ovarian) was over 100 µM and the TGI (M14 melanoma) was over 100 µM. It also gave a TGI (EKVX NSCLC) of over 100 µM, a TGI (HCC-2998 colon) of over 100 µM and a TGI (MCF7 breast) of over 100 µM. For the same compound, the TGI (NCI-H522 lung) was over 100 µM, the TGI (LOX IMVI melanoma) was over 100 µM and the TGI (SK-OV-3 ovarian) was over 100 µM. For the same compound, the TGI (MDA-MB-231 breast) was over 100 µM, the TGI (MOLT-4 leukemia) was over 100 µM and the TGI (MDA-MB-435) was over 100 µM. For the same compound, the TGI (UACC-257 melanoma) was over 100 µM, the TGI (T-47D breast) was over 100 µM and the TGI (A498 renal) was over 100 µM. The TGI (SF-295 CNS) was over 100 µM, the TGI (A549 NSCLC) was over 100 µM and the TGI (SNB-75 CNS) was over 100 µM. It also gave a TGI (PC-3 prostate) of over 100 µM, a TGI (CAKI-1 renal) of over 100 µM and a TGI (RXF 393 renal) of over 100 µM. It also gave a TGI (OVCAR-3 ovarian) of over 100 µM, a TGI (HOP-92 NSCLC) of over 100 µM and a TGI (SF-268 CNS) of over 100 µM. The TGI (SN12C renal) was over 100 µM, the TGI (KM12 colon) was over 100 µM and the TGI (RPMI-8226 leukemia) was over 100 µM. It also gave a TGI (IGROV1 ovarian) of over 100 µM, a TGI (OVCAR-5 ovarian) of over 100 µM and a TGI (DU-145 prostate) of over 100 µM. For the same compound, the TGI (HOP-62 NSCLC) was over 100 µM and the TGI (SW-620 colon) was over 100 µM.
